# Results reported in paper PMC12455637, “Functionalizing Nisin with a Sugar Moiety Improves Its Solubility and Results in an Altered Antibacterial Spectrum and Mode of Action” (ACS Synthetic Biology, 2025).
# Square brackets hold non-standard residues; d marks the D form. Primed or numbered codes have the meaning given here. Side chains are listed from the residue outwards. Ends that are not written are not given here. triazole = not defined here; Hpg′ = not defined here
# How the values were obtained:
# Bacillus cereus CH-85 = assay: MIC, broth microdilution; type: cell-based; conditions: inoculum ~5 × 10^5 CFU/mL, overnight 37 °C, HPLC-purified peptides
# Description: (§1) The minimal inhibitory concentration (MIC) values were assessed through broth microdilution following standard guidelines. The inoculum was adjusted to around 5 × 10^5 CFU/mL. MIC was characterized as the lowest concentration of the antimicrobial substance at which no visible growth was observed following overnight incubation at 37 °C.
# [1] = test system: Listeria monocytogenes LMG10470; assay: MIC, broth microdilution; type: cell-based; conditions: inoculum ~5 × 10^5 CFU/mL, overnight 37 °C, HPLC-purified peptides
# Description: as §1
# [2] = test system: Enterococcus faecium LMG16003 (VRE); type: cell-based; conditions: broth microdilution, inoculum ~5 × 10^5 CFU/mL, overnight 37 °C, HPLC-purified peptides
# Description: as §1
# [3] = test system: Staphylococcus aureus LMG15975 (MRSA); type: cell-based; conditions: broth microdilution, inoculum ~5 × 10^5 CFU/mL, overnight 37 °C, HPLC-purified peptides
# Description: as §1
# E. faecium [4] = type: cell-based, Enterococcus faecium; conditions: for decrease in zone of inhibition (activity) on Hpg labeling: 30 μL of 1 mg/mL in 8 mm wells, zone area minus well area, 3 experiments
# Description: 2 Production of single-Met containing nisin and nisin variants labeled with Met, Hpg or Hpg–Glc and their antibacterial activity against E. faecium strain. (a) Quantification of fully modified nisin variants labeled with Met or Hpg using HPLC as per Schmitt et al. (b) Evaluation of the antimicrobial efficacy of nisin and its variants against E. faecium through agar well diffusion assay. Each trial was repeated 3 times. The relative activity was determined by measuring inhibition zone diameters in millimeters, calculated as the area of the zone (πr ^2) minus the area of the well (πr ^2) in millimeters.
# An overnight culture was added at a concentration of 0.1% (v/v) to molten GM17 agar (for E. faecium and E. faecalis) or LB agar (for S. aureus and B. cereus) at 45 °C, and then 30 mL of this mixture was poured onto a plate. After the agar solidified, wells of 8 mm were created by punching in the agar and filled with 30 μL of a 1 mg/mL lantibiotic solution. If needed, lantibiotics were activated by adding 3 μL of 1 mg/mL NisP directly to the well. The quantity of nisin was determined using HPLC as previously outlined. The agar plate was then incubated at 37 °C overnight, and the zones of inhibition were measured. The presented data results from three independent experiments. Zone diameters were measured in millimeters and recorded as the area of the zone (πr ^2) minus the area of the well (πr ^2) in millimeters.
# [5] = test system: various Gram-positive bacteria; conditions: ref citation numbers not given; cited from earlier work
# Source text: Recently, we introduced the Met analog Aha at position 17 and used click chemistry to ...
# E. faecium [6] = assay: Time-kill assay; type: cell-based, Enterococcus faecium; conditions: 5-fold MIC against E. faecium
# Description: The antimicrobial effectiveness of nisin, nisin(1–22), and nisin(M21V)–Gal was assessed using a method previously described by Guo et al. , In summary, an overnight culture of E. faecium was diluted 50 times in GM17 medium and cultured at 37 °C. The bacteria were grown until reaching an optical density at 600 nm (OD600) of 0.5, and then the cell concentration was adjusted to 5 × 10^5 colony-forming units per milliliter (CFU/mL). Following this, the bacteria were exposed to a 5-fold MIC of each peptide. An untreated cell suspension was used as a control. At specific time intervals, 50 μL samples were taken, and both undiluted and 10-fold serially diluted suspensions were plated on GM17 agar. The plates were then incubated overnight at 37 °C, and the resulting colonies were counted and expressed as CFU/mL. Each experiment was conducted in triplicate.
# [7] = compared to the same peptide labeled with Met
compound,measurement,setting,value
C#CCC[C@H](NC(=O)[C@H](CC(N)=O)NC(=O)[C@@H]1CS[C@@H](C)[C@@H](NC(=O)[C@H](CCCCN)NC(=O)[C@@H]2CS[C@@H](C)[C@@H](NC(=O)[C@@H]3CSC[C@@H](NC(=O)/C(=C/C)NC(=O)[C@@H](N)[C@@H](C)CC)C(=O)N[C@@H]([C@@H](C)CC)C(=O)NC(=C)C(=O)N[C@@H](CC(C)C)C(=O)N3)C(=O)N3CCC[C@H]3C(=O)NCC(=O)N2)C(=O)NCC(=O)N[C@@H](C)C(=O)N[C@@H](CC(C)C)C(=O)N[C@@H]([C@@H](C)CC)C(=O)NCC(=O)N1)C(=O)N[C@@H](CCCCN)C(=O)N[C@H]1C(=O)N[C@@H](C)C(=O)N[C@H]2C(=O)N[C@@H](CS[C@H]1C)C(=O)N[C@@H](Cc1c[nH]cn1)C(=O)N[C@H](C(=O)N[C@@H](CO)C(=O)N[C@H](C(=O)N[C@@H](Cc1c[nH]cn1)C(=O)N[C@H](C(=O)NC(=C)C(=O)N[C@@H](CCCCN)C(=O)O)C(C)C)[C@@H](C)CC)CS[C@H]2C [nisin(M17I)(Hpg)],MIC,Bacillus cereus CH-85,121.5 µg/mL
same,MIC,[1],121.5 µg/mL
same,MIC,[2],15.2 µg/mL
same,MIC,[3],30.4 µg/mL
same,decrease in zone of inhibition (activity) on Hpg labeling,E. faecium [4]; [7],30%
C#CCC[C@@H]1NC(=O)[C@H](CC(C)C)NC(=O)[C@H](C)NC(=O)CNC(=O)[C@H](NC(=O)[C@H](CCCCN)NC(=O)[C@@H]2CS[C@@H](C)[C@@H](NC(=O)[C@@H]3CSC[C@@H](NC(=O)/C(=C/C)NC(=O)[C@@H](N)[C@@H](C)CC)C(=O)N[C@@H]([C@@H](C)CC)C(=O)NC(=C)C(=O)N[C@@H](CC(C)C)C(=O)N3)C(=O)N3CCC[C@H]3C(=O)NCC(=O)N2)[C@H](C)SC[C@@H](C(=O)N[C@@H](CC(N)=O)C(=O)N[C@H](C(=O)N[C@@H](CCCCN)C(=O)N[C@H]2C(=O)N[C@@H](C)C(=O)N[C@H]3C(=O)N[C@@H](CS[C@H]2C)C(=O)N[C@@H](Cc2c[nH]cn2)C(=O)N[C@H](C(=O)N[C@@H](CO)C(=O)N[C@H](C(=O)N[C@@H](Cc2c[nH]cn2)C(=O)N[C@H](C(=O)NC(=C)C(=O)N[C@@H](CCCCN)C(=O)O)C(C)C)[C@@H](C)CC)CS[C@H]3C)C(C)C)NC(=O)CNC1=O [nisin(M21V)(Hpg)],MIC,Bacillus cereus CH-85,30.4 µg/mL
same,MIC,[1],30.4 µg/mL
same,MIC,[2],7.6 µg/mL
same,MIC,[3],15.2 µg/mL
same,decrease in zone of inhibition (activity) on Hpg labeling,E. faecium [4]; [7],17%
C#CCC[C@H](NC(=O)[C@@H]1CS[C@@H](C)[C@@H](NC(=O)[C@@H](NC(=O)[C@@H]2CS[C@@H](C)[C@@H](NC(=O)[C@@H]3CSC[C@@H](NC(=O)/C(=C/C)NC(=O)[C@@H](N)[C@@H](C)CC)C(=O)N[C@@H]([C@@H](C)CC)C(=O)NC(=C)C(=O)N[C@@H](CC(C)C)C(=O)N3)C(=O)N[C@@H](C)C(=O)NCC(=O)N2)[C@@H](C)CC)C(=O)NCC(=O)N[C@@H](C(C)C)C(=O)N[C@@H]([C@@H](C)CC)C(=O)N[C@@H]([C@@H](C)CC)C(=O)N/C(=C\C)C(=O)N1)C(=O)N[C@@H]1CSC[C@@H](C(=O)N[C@@H](CCCCN)C(=O)O)NC(=O)CNC(=O)[C@H](CC(N)=O)NC1=O [rombocin(M17I)(Hpg)],decrease in zone of inhibition (activity) on Hpg labeling,E. faecium [4]; [7],49%
C#CCC[C@@H]1NC(=O)[C@H]([C@@H](C)CC)NC(=O)[C@H](C(C)C)NC(=O)CNC(=O)[C@H](NC(=O)[C@@H](NC(=O)[C@@H]2CS[C@@H](C)[C@@H](NC(=O)[C@@H]3CSC[C@@H](NC(=O)/C(=C/C)NC(=O)[C@@H](N)[C@@H](C)CC)C(=O)N[C@@H]([C@@H](C)CC)C(=O)NC(=C)C(=O)N[C@@H](CC(C)C)C(=O)N3)C(=O)N[C@@H](C)C(=O)NCC(=O)N2)[C@@H](C)CC)[C@H](C)SC[C@@H](C(=O)N[C@H](C(=O)N[C@@H]2CSC[C@@H](C(=O)N[C@@H](CCCCN)C(=O)O)NC(=O)CNC(=O)[C@H](CC(N)=O)NC2=O)C(C)C)NC(=O)/C(=C/C)NC1=O [rombocin(M20V)(Hpg)],decrease in zone of inhibition (activity) on Hpg labeling,E. faecium [4]; [7],13%
"M17W: literature nisin mutant with M17W mutation (ITSISLCTPGCKTGALWGCNMKTATCHCSIHVSK; cysteine pairing not given here; also: lantibiotic nisin-A; UniProt P13068 24-57, looked up, variant M17W) [reference compound]",influence of M17 mutation on antimicrobial activity,[5],reduced activity
"nisin(1–22): truncated variant of nisin, bacteriostatic control that only binds lipid II (ITSISLCTPGCKTGALMGCNMK; cysteine pairing not given here; also: lantibiotic nisin-A; UniProt P13068 24-45, looked up, fragment) [reference compound]",bacteriostatic or bactericidal nature,E. faecium [6],bacteriostatic effect
"nisin(M17I): single-Met nisin mutant M17I, labeled with Met (ITSISLCTPGCKTGALIGCNMKTATCHCSIHVSK; not fully specified (some residues, bridges); cysteine pairing not given here; also: lantibiotic nisin-A, labeled with Met; UniProt P13068 24-57, looked up, variant M17I)",influence of M17 mutation on antimicrobial activity,[5],reduced activity
"nisin(M17I)–Glc (ITSISLCTPGCKTGALIGCN[Hpg′]([triazole-2‑deoxy‑D‑glucose])KTATCHCSIHVSK; not fully specified (some residues, bridges); reading uncertain; also: nisin-A lantibiotic thioether rings and dehydro residues, not placed; UniProt P13068 24-57, looked up, variant M17I)",decrease of activity after glucose attachment,"E. faecium [4]; compared to the Hpg-labeled peptide, agar well diffusion",15%
same,decrease of activity of the glucose conjugate,"E. faecium [4]; compared to the same peptide labeled with Met, agar well diffusion",41%
"nisin(M21V): single-Met nisin mutant M21V, labeled with Met (ITSISLCTPGCKTGALMGCNVKTATCHCSIHVSK; not fully specified (some residues, bridges); cysteine pairing not given here; also: lantibiotic nisin-A, labeled with Met; UniProt P13068 24-57, looked up, variant M21V)",antibacterial activity in words,"E. faecium [4]; agar well diffusion, 30 μL of 1 mg/mL",highest antibacterial activity
